Experiment [1] has as its system CD11a surface expression on huMSCs. The experiment in a line: Medium throughput screen: CD11a surface expression on MSCs, PE-CY5 anti-CD11a antibody, laser-scanning fluorescence microplate cytometer. Format: cell-based, human. Set-up: key to Cell surface ligand CD11a (induction of expression): NA = negative activity result; A = positive activity result. The settings on record: pretreatment of huMSCs; for EC50: read-out: Cell Surface Marker ED 50 (M) Molar Concentration of Compound for CD11a Expression. As for the experimental part:
An in vitro screen was performed for compounds that induce surface expression on huMSCs of the marker CD11a (LFA-1). This screen may be considered a medium throughput screen. Certain compounds that induce the increase of this surface marker were then selected for testing in an in vitro firm adhesion assay and/or in vivo systemic administration in an animal model of inflammation. The surface expression screen involved fluorophore-conjugated antibodies to the respective markers. Following pretreatment with the test compounds, samples of cells were incubated with the labeled antibodies for detection of surface marker expression and change relative to a reference level of untreated cells or negative control samples or values. Cells were pretreated with a concentration (3 μM) of each small molecule compound for 24 hours, followed by incubation with a fluorophore-conjugated anti-marker antibody to detect expression on MSC surface. Surface expression levels of marker ligands were then evaluated by laser-scanning fluorescence microplate cytometer. […] Cell viability in response to compounds was also tested to assess whether molecules have toxicity after 24 hours of pretreatment. Testing was performed on two different huMSC sources representing cells from different donors.
Further details of the screening approach are provided as follows. A unique single batch of bone marrow-derived MSC cells was prepared for the entire screening campaign by cell amplification using CellStack flasks and freezing in separate vials at passage P5. […] For each run, vials were thawed and cells directly seeded on 384-well plates at 3,000 cells per well in MSCGM medium. Following an overnight incubation, cells were treated with the indicated concentrations of compounds for 24 hours. Cells were washed in PBS, 3% BSA and incubated for one hour with PE-CY5-conjugated anti-CD11a monoclonal antibody (clone HI111). Expression of CD11a at the cell surface was detected using the Acumen Explorer, a laser-scanning fluorescence microplate cytometer after two PBS washings. HL-60 cells seeded at 10,000 cells per well and treated with 100 nM phorbol 12-myristate 13-acetate (PMA) for 24 h to induce cell adhesion were used as a positive control in each 384-well plate. Positive compounds were counter-screened for their auto-fluorescence by measuring the signal in the absence of antibody.
A single batch of bone marrow-derived MSC was prepared for the entire screening campaign by cell amplification using CellStack flasks and freezing in separate vials at passage P5. […] For each run, vials were thawed and cells directly seeded on 384-well plates at 3,000 cells per well in MSCGM medium. Following an overnight incubation, cells were pretreated with a low (0.1 μM) and high (3 μM) concentration of the compounds for 24 h. 9,000 cpds were tested in 112 assay plates, each 384-well plate contained 320 cpds (from column 5 to 24), one column for Max (Column2, HL60 cells) and one column for Min (Column4, MSC cells). Cells were washed in PBS, 3% BSA and incubated for one hour with PE-CY5-conjugated anti-CD11a monoclonal Ab (BD Biosciences). Expression of CD11a at the cell surface was detected after two PBS washes using the Acumen Explorer equipment, a laser-scanning fluorescence microplate cytometer. HL-60 cells (seeded at 10,000 cells per well and treated with 100 nM phorbol 12-myristate 13-acetate (PMA) for 24 h to induce cell adhesion) were used as a positive control in each 384-well plate. Positive compounds were counter-screened for their auto-fluorescence by measuring the signal in the absence of Ab. Shown in FIG. 4 is the global screening data. Using the Max, Min columns, we have calculated Max/Min ratio generated with CD11a Ab for each assay plate (signal/background ration in green columns was calculated for each of the 112 assay plates). […]

For experiment [2], the system named is LPS-induced inflamed mouse ear. In words: In vivo MSC homing to LPS-induced inflamed ear after systemic infusion, intravital microscopy. The arrangement: key to In vivo functional assay (homing): NA = negative activity result; A = positive activity result. The settings on record: for Increase of MSC homing to inflamed ear (%): relative to untreated cells. The protocol: C57BL/6 mice (Charles River Laboratories, Wilmington, Mass.) were anesthetized with ketamine/xylazine and their ears shaved 24 h prior to cell infusion. To induce an inflammatory response, 30 μg of E. coli lipopolysaccharide (LPS, Sigma, St. Louis, Mo.) in 50 μL saline was injected into the pinna of the left ear, with 50 μL 0.9% saline injected into the right ear as a control. For in vivo dye sensitivity validation, 1×10e6 cells of each stain were suspended in 150 μL PBS (pH 7.4) and injected by retro-orbital vein infusion.
To evaluate the minimum number of cells needed for a reproducible response, each mouse (n=4) received a range of cell doses (10,000, 50,000, 100,000, or 500,000) each of cells stained with Dil or DiD with a dye switch (i.e., dyes used for experimental and control cells were alternated to prevent bias based on the dyes that were used). To evaluate the impact of small molecule hit pre-treatment on MSC homing to the inflamed ear, MSCs were incubated with 3 μM of the small molecule hit or 0.1% DMSO as a control for 24 h before staining and in vivo administration. To highlight the vasculature, 50 μL of 10 mg/mL FITC-dextran ([…]; Sigma, St. Louis, Mo.) was injected retro-orbitally prior to imaging.
In vitro staining and in vivo homing of stained MSCs to the skin was imaged noninvasively in real time using a custom-built video-rate laser-scanning confocal microscope designed specifically for live animal imaging. For in vivo imaging, the mouse ear was positioned under a coverslip with methylcellulose gel and images acquired at 30 frames per second at a depth up to 200 μm using a 60×1.0NA water immersion objective lens (Olympus, Center Valley, Pa.). DiO labeled MSCs were excited with a 491 nm continuous wave (CW) laser (Cobalt, Stockholm, Sweden), and detected through a 520±20 nm bandpass filter (Semrock, Inc., Rochester, N.Y.). Dil labeled MSCs were excited with a 561 nm CW laser (Coherent, Inc., Santa Clara, Calif.) and detected through a 593 nm±40 nm filter (Omega Optical, Brattleboro, Vt.). DiD labeled MSCs were excited with a 635 nm CW laser (Coherent, Inc., Santa Clara, Calif.) and detected through a 695 nm±27.5 nm band pass filter (Omega Optical, Brattleboro, Vt.). DiR labeled MSCs were excited using a femtosecond Ti:Sapphire Maitai source for single photon excitation at 750 nm (Spectra Physics, Santa Clara, Calif.) and collected through a 785 nm±31 nm band pass filter (Omega Optical, Brattleboro, Vt.).
For quantification, the average number of cells in 20 representative imaging locations across the inflamed region was counted in each mouse. Cells were defined as having a diameter from 10-30 μm to eliminate debris and clumps from analysis, and a primary channel intensity greater than 2 to eliminate autofluorescent events. The average relative detection sensitivity (ratio of Dil/DiD counts) determined in the overall dye efficiency experiments were used to scale the counts for DiD stained cells. […] For multiple comparisons, Tukey's HSD test was used. Error bars in graphs represent standard error, and statistical significance is denoted by * p<0.05.

The test system of experiment [3] is human mesenchymal stem cells. The experiment in a line: In vitro functional firm adhesion assay of cells (Table 3, coating not stated). Format: cell-based. The arrangement: key to Result, in vitro Firm Adhesion: NA = negative activity result; A = positive activity result. The settings on record: for Result, in vitro Firm Adhesion: pretreated huMSCs; for Firm adhesion, Percent increase: relative to untreated and/or negative control MSCs. The protocol:
(§1) Cell adhesion experiments were performed using Bioflux1000 (FluxionBio), allowing accurate control over shear flow. A special 48-well plate was used, in which a microfluidic channel (350 μm×70 μm) connects each pair of adjacent wells (termed inlet and outlet wells). The plate was placed under vacuum and the channels were coated from the inlet with recombinant human E-selectin (5 μg/mL) or ICAM-1 (5 μg/mL) and incubated at 37° C. for 1 h. Prior to introducing the cells into the channel, a wash with PBS−/− from the outlet well was performed for 5 min. Compound-pretreated MSCs were introduced into the channel, followed by attachment period of 2 minutes (no flow applied during the attachment period). Attached cells were then subjected to increasing shear flow, ranging from 0.25 dynes/cm^2 for up to 10 dynes/cm^2. Images were acquired using the Montage software and cell adhesion to the coated channels following subjection to shear flow was examined. See also disclosure elsewhere herein.
1. Obtain preferred channel coating (protein/cell monolayer). 2. Prepare cell suspension (same concentrations detailed above for different cell types). 3. Add 50 μl of cell suspension to outlet well. 4. Introduce cells into channel by applying shear force of 2 dynes/cm^2 (cells should be observed within 10-15 sec flowing from outlet to inlet). 5. Once cells are observed in the channel, stop the flow and allow the introduced cells to sit for different time periods ranging from 30 seconds to 5 minutes. 6. Following this settling period, apply shear force starting from 0.5 dynes/cm^2 up to 10 dynes/cm^2 and acquire videos using stream acquisition. 7. Cell quantification is then performed using the Montage software—percentage of cells adhered, rolled or washed away after applying shear flow should be quantified.

The subject of experiment [4] is CD11a surface expression on MSCs. The experiment in a line: Flow cytometry of CD11a surface expression on MSCs (FITC-CD11a Ab). The format is cell-based, human. The settings on record: 3 μM for 24 h. The protocol: MSCs were pretreated with DMSO vehicle control (DMSO-MSC, 0.1%) or ruboxistaurin (Rub-MSC, 3 μM) for 24 h and CD11a expression levels were assessed via flow cytometry (cells were stained with either FITC-CD11a Ab or isotype control, representative data from n=3 independent experiments).

The test system of experiment [5] is MSC firm adhesion to ICAM-1-coated surface. The experiment in a line: ICAM-1 firm adhesion assay under shear flow, with antibody blocking. Format: cell-based, human. The settings on record: 3 μM for 24 h. As for the experimental part:
as §1
Pre-confluent MSCs were incubated for 24 hours with the indicated small molecules (3 μM). MSCs were than detached, washed and incubated for 30 minutes with an antibody reagent. The following antibodies are used: anti-human CD11a (clone: HI111), anti-human CD90 (clone: MAB2067), mouse anti-human CD11a (clone: TS1/22), and mouse IgG1 isotype control. Cells were then introduced into the channel and given 2 minutes to adhere before being subjected to increasing shear flow for a firm adhesion assay on a microfluidic channel coated with E-selectin or ICAM-1.

Entries after “also recorded” stand apart in the source; their conditions may differ. Counter-ions that a name gives are not always drawn. Like-named read-outs stand apart in the source and are kept apart here.

As for `CN(C)CCCn1cc(C2=C(c3c[nH]c4ccccc34)C(=O)NC2=O)c2ccccc21` [Compound 1934, 3-[1-(3-dimethylamino-propyl)-1H-indol-3-yl]-4-(1H-indol-3-yl)-pyrrole-2,5-dione], the “Cell surface ligand CD11a (induction of expression)” value (“Cell surface ligand CD11a” for short) in experiment [1] was “A”.

As to `CN1C(=O)C(c2c[nH]c3ccccc23)=C(c2cn(C)c3ccccc23)C1=O` [Compound 1905, 3-(1H-indol-3-yl)-1-methyl-4-(1-methyl-1H-indol-3-yl)-pyrrole-2,5-dione], the EC50 in experiment [1] (Homo sapiens) was found to be 1.68e-05 M.

Take `O=C1C(c2c[nH]c3ccccc23)=C(c2c[nH]c3ccccc23)C(=O)N1Cc1ccccc1` [Compound 1921, 1-benzyl-3,4-bis-(1H-indol-3-yl)-pyrrole-2,5-dione]: the EC50 in experiment [1] (Homo sapiens) amounted to 1.75e-05 M. Further, the “Cell surface ligand CD11a” value in experiment [1] is “A”.

Consider `CN1CCCC1CCn1cc(C2=C(c3c[nH]c4ccccc34)C(=O)NC2=O)c2ccccc21` (stereo not shown) [Compound 1928, 3-(1H-indol-3-yl)-4-{1-[2-(1-methyl-pyrrolidin-2-yl)-ethyl]-1H-indol-3-yl}-pyrrole-2,5-dione], for which the “Cell surface ligand CD11a” value in experiment [1] is “A”.

For the compound `CN(C)CC1CCn2c(c(C3=C(c4cn(C)c5ccccc45)C(=O)NC3=O)c3ccccc32)C1` (stereo not shown) [Compound 1933, 3-(8-dimethylaminomethyl-6,7,8,9-tetrahydro-pyrido[1,2-a]indol-10-yl)-4-(1-methyl-1H-indol-3-yl)-pyrrole-2,5-dione hydrochloride], the “Increase of MSC homing to inflamed ear (%)” value in experiment [2] is less than 10%. Besides, the EC50 in experiment [1] (Homo sapiens) was 2.49e-05 M. In addition, the “Cell surface ligand CD11a” value in experiment [1] is “A”. In addition, in experiment [3], the “Result, in vitro Firm Adhesion” value is “A” and the “Firm adhesion, Percent increase” value is reported as 75%.

`Cn1cc(C2=C(c3c4n(c5ccccc35)CCC(CN)C4)C(=O)NC2=O)c2ccccc21` (stereo not shown) [Compound 1919, 3-(8-aminomethyl-6,7,8,9-tetrahydro-pyrido[1,2-a]indol-10-yl)-4-(1-methyl-1H-indol-3-yl)-pyrrole-2,5-dione]: the “Increase of MSC homing to inflamed ear (%)” value in experiment [2] is 45%. For the same compound, the “In vivo functional assay (homing)” value in experiment [2] (systemic administration of pretreated huMSCs) is “A”. Moreover, in experiment [1], the “Cell surface ligand CD11a” value is on record as “A” and the EC50 worked out at 2.75e-06 M. Further, in experiment [3], the “Result, in vitro Firm Adhesion” value is reported as “A” and the “Firm adhesion, Percent increase” value came out at 81%.

Take `Cn1cc(C2=C(c3cn(C4CCN(Cc5ccccn5)CC4)c4ccccc34)C(=O)NC2=O)c2ccccc21` [Compound 1906, 3-(1-methyl-1H-indol-3-yl)-4-[1-(1-pyridin-2-ylmethyl-piperidin-4-yl)-1H-indol-3-yl]-pyrrole-2,5-dione, reference compound]: in experiment [1] (Homo sapiens), the EC50 worked out at 3.19e-06 M.

For `CN(C)C[C@@H]1CCn2cc(c3ccccc32)C2=C(C(=O)NC2=O)c2cn(c3ccccc23)CCO1` [Ruboxistaurin, ruboxistaurin, reference compound], in experiment [4], the “CD11a surface expression on MSCs” value was “did not increase; also recorded: does not upregulate”. Also, the EC50 in experiment [1] (Homo sapiens) is more than 3e-05 M. Besides, in experiment [5], the “MSC firm adhesion to ICAM-1-coated substrates, result in words” value was “did not improve”. The “Firm adhesion, Percent increase” value in experiment [3] is on record as 0% (negative response).

On to `Cn1cc(C2=C(c3cn(C)c4ccccc34)C(=O)NC2=O)c2ccccc21` [Compound 1912, 3,4-bis-(1-methyl-1H-indol-3-yl)-pyrrole-2,5-dione], for which the “Cell surface ligand CD11a” value in experiment [1] was “A”.
